Key:
Conditions in all cases: incubation time: 72 h
[1] = test system: BT-474; assay: normalised response (% of control), CellTox Green; higher = less cell death (100 = DMSO, 0 = benzethonium chloride kill control)
Summary of the method: (§1)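 The table gives the normalised signal for a single concentration in each entry. Breast cancer cell lines were seeded (20 µl suspension) into 384-well plates holding compound at 5 concentrations in 10-fold steps over a compound-specific 10,000-fold range and incubated 72 h, then read for CellTox Green fluorescence (485/520 nm) and CellTiter-Glo luminescence. Normalisation on each plate used 0.1 % DMSO (100) and a positive kill control (0).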

[2] = test system: BT-549; assay: as above
Summary of the method: as §1

[3] = test system: CAL-120; assay: as above
Summary of the method: as §1

[4] = test system: CAL-148; assay: as above
Summary of the method: as §1

[5] = test system: CAL-51; assay: as above
Summary of the method: as §1

[6] = test system: CAL-85-1; assay: as above
Summary of the method: as §1

[7] = test system: DU-4475; assay: as above
Summary of the method: as §1

[8] = test system: HCC1143; assay: as above
Summary of the method: as §1

[9] = test system: HCC1599; assay: as above
Summary of the method: as §1

[10] = test system: HCC1937; assay: as above
Summary of the method: as §1

[11] = test system: HDQ-P1; assay: as above
Summary of the method: as §1

[12] = test system: MCF-10A; assay: as above
Summary of the method: as §1

[13] = test system: MDA-MB-231; assay: as above
Summary of the method: as §1

[14] = test system: MDA-MB-436; assay: as above
Summary of the method: as §1

[15] = test system: MDA-MB-453; assay: as above
Summary of the method: as §1

[16] = test system: MDA-MB-468; assay: as above
Summary of the method: as §1

[17] = test system: MFM-223; assay: as above
Summary of the method: as §1

[18] = test system: BT-474; assay: normalised response (% of control), CellTiter-Glo; higher = more viable cells (100 = DMSO, 0 = benzethonium chloride kill control)
Description: (§2)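 DSRT, 72 h incubation, CellTox Green / CellTiter-Glo readout. Signal is normalised to DMSO and benzethonium chloride controls. Value is the normalised response at dose 3.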

[19] = test system: BT-549; assay: as above
Description: as §2

[20] = test system: CAL-120; assay: as above
Description: as §2

[21] = test system: CAL-148; assay: as above
Description: as §2

[22] = test system: CAL-51; assay: as above
Description: as §2

[23] = test system: CAL-85-1; assay: as above
Description: as §2

[24] = test system: DU-4475; assay: as above
Description: as §2

[25] = test system: HCC1143; assay: as above
Description: as §2

[26] = test system: HCC1599; assay: as above
Description: as §2

[27] = test system: HCC1937; assay: as above
Description: as §2

[28] = test system: HDQ-P1; assay: as above
Description: as §2

[29] = test system: Hs578T; assay: as above
Description: as §2

[30] = test system: MCF-10A; assay: as above
Description: as §2

[31] = test system: MDA-MB-231; assay: as above
Description: as §2

[32] = test system: MDA-MB-436; assay: as above
Description: as §2

[33] = test system: MDA-MB-453; assay: as above
Description: as §2

[34] = test system: MDA-MB-468; assay: as above
Description: as §2

[35] = test system: MFM-223; assay: as above
Description: as §2

[36] = test system: SK-BR-3; assay: as above
Description: as §2

[37] = test system: Hs578T; assay: normalised response (% of control), CellTox Green; higher = less cell death (100 = DMSO, 0 = benzethonium chloride kill control)
Summary of the method: as §1

SMILES	normalised response [1]	normalised response [2]	normalised response [3]	normalised response [4]	normalised response [5]	normalised response [6]	normalised response [7]	normalised response [8]	normalised response [9]	normalised response [10]	normalised response [11]	normalised response [12]	normalised response [13]	normalised response [14]	normalised response [15]	normalised response [16]	normalised response [17]	normalised response [18]	normalised response [19]	normalised response [20]	normalised response [21]	normalised response [22]	normalised response [23]	normalised response [24]	normalised response [25]	normalised response [26]	normalised response [27]	normalised response [28]	normalised response [29]	normalised response [30]	normalised response [31]	normalised response [32]	normalised response [33]	normalised response [34]	normalised response [35]	normalised response [36]	normalised response [37]
CN(C)CCN1C(=O)c2cccc3cc(N)cc(c23)C1=O [Amonafide] (100 nM)	98.5%	106%	97.8%	99.3%	95.2%	101%	97.2%	114%	115%	104%	81.9%	103%	81.1%	80.1%	104%	144%	106%	106%	106%	100%	93.8%	79.1%	93.1%	99.2%	100%	74.9%	98.8%	102%	100%	99.5%	111%	99.5%	89.3%	96.8%	101%	95.3%	
O=C(O)CCCc1ccc(N(CCCl)CCCl)cc1 [Chlorambucil] (100 nM)	101%	101%	92.9%		85.3%	94.9%	102%	94.9%	99%	98.2%	107%	101%	102%	84.8%	102%	118%	98.8%	98.7%	108%	96.6%	107%	79.5%	105%	104%	103%	100%	94%	103%	102%	99.9%	106%	99.3%	104%	106%	98.6%	106%	105%
CN1CCN(CCOc2cc(OC3CCOCC3)c3c(Nc4c(Cl)ccc5c4OCO5)ncnc3c2)CC1 [Saracatinib] (100 nM)	99.5%		99%	84.5%	90.7%	88.8%	102%	56.8%	94.3%	88.4%	90.7%	89.4%	90.6%	97%	106%			84.4%	104%	95.1%	98.5%	106%	102%	93.9%	96.1%	111%	94.2%	93.5%	104%	78.2%	78.7%	95.1%	106%	95.5%	94.6%	109%	
Nc1nc(OCc2cc(Br)cs2)c2[nH]cnc2n1 [Lomeguatrib] (100 nM)	102%	95.1%	100%	63.5%	92.9%	103%	101%	96.5%	100%	104%		97.3%	110%	98.3%	106%	134%	103%	98.8%	99.2%	99.2%	102%	84.8%	101%	101%	106%	111%	101%	106%	99%	106%	98.2%	102%	95.2%	95.4%	100%	106%	100%
CC(C)(C#N)c1cc(Cn2cncn2)cc(C(C)(C)C#N)c1 [Anastrozole] (100 nM)	102%	103%	99.9%	106%	73.3%	101%	103%	102%	102%	99.9%	97.9%	74.4%	106%	93.3%	102%		100%	104%	104%	101%	98.8%	67.3%	98.6%	107%	97%	100%	95.3%	102%	113%	112%	97.4%	104%	105%	91.3%	104%	106%	87%
CNNCc1ccc(C(=O)NC(C)C)cc1 [Procarbazine] (100 nM)	102%	102%	103%	102%	112%	99.7%	107%	99.4%	98.7%	94.1%		98.5%	119%	103%	106%	95.5%		100%	109%	106%	104%	102%	101%	101%	108%	107%	103%	105%	104%	109%	105%	95.4%	104%	99.4%	103%	105%	63.4%
Cn1cncc1[C@@](N)(c1ccc(Cl)cc1)c1ccc2c(c1)c(-c1cccc(Cl)c1)cc(=O)n2C [Tipifarnib] (100 nM)	98.2%	107%	90.6%	92.2%	63.4%	108%	98.1%	104%	107%	99.6%	103%	99.7%		20.8%	98.7%	118%	99.9%	87.6%	86.9%	89.3%	85.3%	72%	104%	77.8%	88.8%	91.5%	80.8%	81.2%	83.1%	83.9%	92.7%	71.6%	75.7%	74.9%	82.6%	69.3%	57.8%
Nc1ncnc2c1c(COc1cccc(Cl)c1)nn2C1CCOCC1 (100 nM)	102%	98.5%	103%	107%	101%	108%	109%	95.8%	114%	112%	102%	109%	119%	102%	111%		103%	102%	98.8%	101%	109%	84.5%	103%	100%	104%	102%	95.5%	101%	78.4%	110%	108%	104%	93.5%	102%	105%	109%	51.6%
c1ccc([C@H]2CN3CCSC3=N2)cc1 [Levamisole] (100 nM)	100%	99.2%	102%	103%	112%	107%	101%	93.9%	104%	76.8%	102%	87.5%		99.2%	101%	120%	106%	106%	98.3%	104%	114%	101%	103%	107%	102%	106%	96.8%	100%	110%	110%	103%	107%	110%	113%	113%	108%	76.6%
